According to patent publication US6358885B1, “Substituted phenylheterocyclic herbicides” (Mississippi State University, priority 1992, dated 2002):

Legend:
[1] = tested on: crabgrass; test: Test C preemergence/postemergence greenhouse plant response rating 0 to 100; format: in vivo, Digitaria sanguinalis; conditions: for Plant response rating, Crabgrass: 125 g/ha, 0 to 100 scale
In short: (§1)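 Compounds in non-phytotoxic solvent went onto sandy loam before emergence (seeded one day earlier) or onto plants at the one-to-four leaf stage. Duck salad was treated via flood water (~2.5 cm, maintained) over silt loam.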

[2] = tested on: morningglory; test: as above; format: in vivo, Ipomoea hederacea; conditions: for Plant response rating, Morningglory: 125 g/ha, 0 to 100 scale
In short: as §1

[3] = tested on: rape; test: as above; format: in vivo, Brassica napus; conditions: for Plant response rating, Rape: 125 g/ha, 0 to 100 scale
In short: as §1

[4] = tested on: ryegrass; test: as above; format: in vivo, Lolium multiflorum; conditions: for Plant response rating Ryegrass: 125 g/ha, 0 to 100 scale
In short: as §1

[5] = tested on: wheat; test: as above; format: in vivo, Triticum aestivum; conditions: for Plant response rating, Wheat: 125 g/ha, 0 to 100 scale
In short: as §1

[6] = tested on: wild oat; test: as above; format: in vivo, Avena fatua; conditions: for Plant response rating, Wild oat: 125 g/ha, 0 to 100 scale
In short: as §1

[7] = tested on: rice; test: Test C flood test plant response rating 0 to 100; format: in vivo, Oryza sativa
In short: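 Compounds in non-phytotoxic solvent applied preemergence to sandy loam one day after planting, postemergence at the 1–4 leaf stage, or to ~2.5 cm floodwater over silt loam.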

## COCOc1cc(-c2nn3c(c2Cl)CCCC3)c(F)cc1Cl [Compound 58]
[1]; POSTEMERGENCE
  Plant response rating, Crabgrass: 70
[1]; POSTEMERGENCE, Rate 2 g/ha
  Plant response rating (0 to 100), Crabgrass: 20
[1]; PREEMERGENCE
  Plant response rating, Crabgrass: 100
[1]; PREEMERGENCE, Rate 2 g/ha
  Plant response rating (0 to 100), Crabgrass: 0
[1]; Rate 8 g/ha, POSTEMERGENCE
  Plant response rating (0 to 100), Crabgrass: 30
[1]; Rate 8 g/ha, PREEMERGENCE
  Plant response rating (0 to 100), Crabgrass: 0
[1]; Rate 31 g/ha, POSTEMERGENCE
  Plant response rating (0 to 100), Crabgrass: 60
[1]; Rate 31 g/ha, PREEMERGENCE
  Plant response rating (0 to 100), Crabgrass: 50
[2]; POSTEMERGENCE
  Plant response rating, Morningglory: 100
[2]; POSTEMERGENCE, Rate 2 g/ha
  Plant response rating (0 to 100), Morningglory: 50
[2]; PREEMERGENCE
  Plant response rating, Morningglory: 30
[2]; PREEMERGENCE, Rate 2 g/ha
  Plant response rating (0 to 100), Morningglory: 0
[2]; Rate 8 g/ha, POSTEMERGENCE
  Plant response rating (0 to 100), Morningglory: 70
[2]; Rate 8 g/ha, PREEMERGENCE
  Plant response rating (0 to 100), Morningglory: 0
[2]; Rate 31 g/ha, POSTEMERGENCE
  Plant response rating (0 to 100), Morningglory: 90
[2]; Rate 31 g/ha, PREEMERGENCE
  Plant response rating (0 to 100), Morningglory: 0
[3]; POSTEMERGENCE
  Plant response rating, Rape: 100
[3]; POSTEMERGENCE, Rate 2 g/ha
  Plant response rating (0 to 100), Rape: 30
[3]; PREEMERGENCE
  Plant response rating, Rape: 70
[3]; PREEMERGENCE, Rate 2 g/ha
  Plant response rating (0 to 100), Rape: 0
[3]; Rate 8 g/ha, POSTEMERGENCE
  Plant response rating (0 to 100), Rape: 50
[3]; Rate 8 g/ha, PREEMERGENCE
  Plant response rating (0 to 100), Rape: 0
[3]; Rate 31 g/ha, POSTEMERGENCE
  Plant response rating (0 to 100), Rape: 70
[3]; Rate 31 g/ha, PREEMERGENCE
  Plant response rating (0 to 100), Rape: 10
[4]; POSTEMERGENCE
  Plant response rating Ryegrass: 85
[4]; POSTEMERGENCE, Rate 2 g/ha
  Plant response rating (0 to 100), Ryegrass: 10
[4]; PREEMERGENCE
  Plant response rating Ryegrass: 100
[4]; PREEMERGENCE, Rate 2 g/ha
  Plant response rating (0 to 100), Ryegrass: 0
[4]; Rate 8 g/ha, POSTEMERGENCE
  Plant response rating (0 to 100), Ryegrass: 30
[4]; Rate 8 g/ha, PREEMERGENCE
  Plant response rating (0 to 100), Ryegrass: 0
[4]; Rate 31 g/ha, POSTEMERGENCE
  Plant response rating (0 to 100), Ryegrass: 60
[4]; Rate 31 g/ha, PREEMERGENCE
  Plant response rating (0 to 100), Ryegrass: 50
[5]; POSTEMERGENCE
  Plant response rating, Wheat: 60
[5]; POSTEMERGENCE, Rate 2 g/ha
  Plant response rating (0 to 100), Wheat: 30
[5]; PREEMERGENCE
  Plant response rating, Wheat: 30
[5]; PREEMERGENCE, Rate 2 g/ha
  Plant response rating (0 to 100), Wheat: 0
[5]; Rate 8 g/ha, POSTEMERGENCE
  Plant response rating (0 to 100), Wheat: 40
[5]; Rate 8 g/ha, PREEMERGENCE
  Plant response rating (0 to 100), Wheat: 0
[5]; Rate 31 g/ha, POSTEMERGENCE
  Plant response rating (0 to 100), Wheat: 50
[5]; Rate 31 g/ha, PREEMERGENCE
  Plant response rating (0 to 100), Wheat: 10
[6]; POSTEMERGENCE
  Plant response rating, Wild oat: 75
[6]; POSTEMERGENCE, Rate 2 g/ha
  Plant response rating (0 to 100), Wild oat: 20
[6]; PREEMERGENCE
  Plant response rating, Wild oat: 75
[6]; PREEMERGENCE, Rate 2 g/ha
  Plant response rating (0 to 100), Wild oat: 0
[6]; Rate 8 g/ha, POSTEMERGENCE
  Plant response rating (0 to 100), Wild oat: 30
[6]; Rate 8 g/ha, PREEMERGENCE
  Plant response rating (0 to 100), Wild oat: 0
[6]; Rate 31 g/ha, POSTEMERGENCE
  Plant response rating (0 to 100), Wild oat: 50
[6]; Rate 31 g/ha, PREEMERGENCE
  Plant response rating (0 to 100), Wild oat: 10
[7]; POSTEMERGENCE section, flood test, Rate 2 g/ha
  Plant response rating (0 to 100), Rice Japonica: 0
[7]; Rate 8 g/ha, under POSTEMERGENCE head (flood test species)
  Plant response rating (0 to 100), Rice Japonica: 0
[7]; Rate 31 g/ha, under POSTEMERGENCE head (flood test species)
  Plant response rating (0 to 100), Rice Japonica: 0
[7]; flood test species listed under POSTEMERGENCE, 125 g/ha, 0 to 100 scale
  Plant response rating Rice Japonica: 50
